# Test results reported in patent US20160120861A1, “Compositions and Methods for Treating an Arrhythmia with an Opioid Antagonist” (PURDUE PHARMA L.P., priority 2013, published 2016).
# Assay: QT study following E14 principles: ECG effects (QTcI) of BTDS alone, BTDS with naltrexone, naltrexone and moxifloxacin relative to placebo
# Conditions: for Mean change from baseline (QTcI): 24-hr ECG at steady state
# Procedure: A QT study following E14 principles regarding design, conduct, analysis, and interpretation was conducted with the following objectives
# Primary: • To evaluate the ECG effects of 10, 40, and 80 mcg/hr buprenorphine delivered by a Buprenorphine Transdermal System (BTDS) alone, or by BTDS dosed with naltrexone tablets, relative to placebo in healthy male and female subjects
# To evaluate the ECG effects of moxifloxacin relative to placebo (assay sensitivity)
# To evaluate the ECG effects of BTDS+Naltrexone (NTX) vs. BTDS alone
# To evaluate the ECG effects of naltrexone alone vs. placebo
# The study was a randomized, double-blind, placebo and positive controlled, parallel group study with the following parameters:
# • Healthy male or female subjects aged 18 to 55 years, inclusive • Heart rate between 45-85 bpm • No clinically significant medical history or disease • Subjects with personal or family history of prolonged QT interval or abnormal cardiovascular condition excluded
# 60 subjects/treatment group
# • 1) BTDS alone (Butrans® 5, 10, 20, 40, 80 mcg/hr) • 2) Moxifloxacin (400 mg single doses on Days 6, 13, 17) • 3) Placebo • 4) Naltrexone alone (NTX 50 mg q12 h days 4-17) • 5) BTDS+Naltrexone (BTDS 10, 20, 40, 80 mcg/hr with NTX 50 mg q12 h days 4-17)
# BTDS or matching placebo patches were applied according to a dose-escalation and dose tapering scheme
# 24-hr ECG were collected at steady-state for each BTDS dose level at Days 6 (10 mcg/hr), 13 (40 mcg/hr) and 17 (80 mcg/hr).
# Continuous 24-hr 12-lead digital Holter ECG collections were performed as follows: • Two 24-hour baseline recordings (Days −2 and −1) • Three 24-hour periods on-treatment for Days 6 (10 mcg/hr), 13 (40 mcg/hr) and 17 (80 mcg/hr).
# ECGs were extracted at 13 time points (0, 0.5, 1, 1.5, 2, 2.5, 3, 4, 7, 10, 13, 18, 23.5 hours) over each 24-hour ECG recording period.
# Subjects rested supine for at least 10 minutes prior to each nominal ECG extraction time and activity was limited for the prior 2 hours.
# 4 ECGs were extracted and quantified at each nominal time point by a blinded central ECG laboratory.
# The primary QT correction for heart rate was QTcI. 104 baseline ECGs were used to determine subject-specific HR correction.
# Placebo-corrected change from baseline QTcI means and 90% CIs were calculated using a mixed effects general linear model with covariates for time, treatment, time by treatment interaction, and sex.
SMILES,">30-60 ms inc, N (%) (Day 6, QTcI, healthy subjects)",">60 ms inc, N (%) (Day 6, QTcI, healthy subjects)","New >480 ms, N (%) (Day 6, QTcI, healthy subjects)","New >500 ms, N (%) (Day 6, QTcI, healthy subjects)","Mean change from baseline (QTcI) (Day 6, healthy subjects) [ms]",">30-60 ms inc, N (%) (Day 13, QTcI, healthy subjects)",">60 ms inc, N (%) (Day 13, QTcI, healthy subjects)","New >480 ms, N (%) (Day 13, QTcI, healthy subjects)","New >500 ms, N (%) (Day 13, QTcI, healthy subjects)","Mean change from baseline (QTcI) (Day 13, healthy subjects) [ms]",">30-60 ms inc, N (%) (Day 17, QTcI, healthy subjects)",">60 ms inc, N (%) (Day 17, QTcI, healthy subjects)","New >480 ms, N (%) (Day 17, QTcI, healthy subjects)","New >500 ms, N (%) (Day 17, QTcI, healthy subjects)","Mean change from baseline (QTcI) (Day 17, healthy subjects) [ms]",Mean change in baseline of the QT interval as compared to buprenorphine alone (naltrexone administered with buprenorphine),">60 ms inc, N (%) (both, human, in vivo)","New >480 ms, N (%) (both, human, in vivo)","New >500 ms, N (%) (both, human, in vivo)","QTcI results (positive control, assay sensitivity) (in vivo)"
"O=C1CC[C@@]2(O)[C@H]3Cc4ccc(O)c5c4[C@@]2(CCN3CC2CC2)[C@H]1O5 [NTX, naltrexone]",0 N (%),0 N (%),0 N (%),0 N (%),1.5,1 (2%) N (%),0 N (%),0 N (%),0 N (%),-1.7,1 (2%) N (%),0 N (%),0 N (%),0 N (%),-0.9,reduced,–,–,–,–
COc1c(N2C[C@@H]3CCCN[C@@H]3C2)c(F)cc2c(=O)c(C(=O)O)cn(C3CC3)c12 [Moxifloxacin],–,–,–,–,–,–,–,–,–,–,–,–,–,–,–,–,0 N (%),0 N (%),0 N (%),as expected
